Measurements from ChEMBL document CHEMBL2074380, “Pyronaridine, a novel modulator of P-glycoprotein-mediated multidrug resistance in tumor cells in vitro and in vivo” (Biochem Biophys Res Commun, 2004).

Columns and labels:
Assay type in all cases: functional, cell-based
[1] = molecular target: T1, ATP-dependent translocase ABCB1 (Homo sapiens, UniProt P08183); test: TP_TRANSPORTER: increase in Rhodamine 123 intracellular accumulation in K562/A02 cells
[2] = molecular target: T1, ATP-dependent translocase ABCB1; test: TP_TRANSPORTER: drug resistance (doxorubicin) in MCF-7/ADR cells; details: nci/adr-res
[3] = molecular target: T1, ATP-dependent translocase ABCB1; test: TP_TRANSPORTER: drug resistance (doxorubicin) in K562/A02 cells

T1 sequence (P08183 whole entry): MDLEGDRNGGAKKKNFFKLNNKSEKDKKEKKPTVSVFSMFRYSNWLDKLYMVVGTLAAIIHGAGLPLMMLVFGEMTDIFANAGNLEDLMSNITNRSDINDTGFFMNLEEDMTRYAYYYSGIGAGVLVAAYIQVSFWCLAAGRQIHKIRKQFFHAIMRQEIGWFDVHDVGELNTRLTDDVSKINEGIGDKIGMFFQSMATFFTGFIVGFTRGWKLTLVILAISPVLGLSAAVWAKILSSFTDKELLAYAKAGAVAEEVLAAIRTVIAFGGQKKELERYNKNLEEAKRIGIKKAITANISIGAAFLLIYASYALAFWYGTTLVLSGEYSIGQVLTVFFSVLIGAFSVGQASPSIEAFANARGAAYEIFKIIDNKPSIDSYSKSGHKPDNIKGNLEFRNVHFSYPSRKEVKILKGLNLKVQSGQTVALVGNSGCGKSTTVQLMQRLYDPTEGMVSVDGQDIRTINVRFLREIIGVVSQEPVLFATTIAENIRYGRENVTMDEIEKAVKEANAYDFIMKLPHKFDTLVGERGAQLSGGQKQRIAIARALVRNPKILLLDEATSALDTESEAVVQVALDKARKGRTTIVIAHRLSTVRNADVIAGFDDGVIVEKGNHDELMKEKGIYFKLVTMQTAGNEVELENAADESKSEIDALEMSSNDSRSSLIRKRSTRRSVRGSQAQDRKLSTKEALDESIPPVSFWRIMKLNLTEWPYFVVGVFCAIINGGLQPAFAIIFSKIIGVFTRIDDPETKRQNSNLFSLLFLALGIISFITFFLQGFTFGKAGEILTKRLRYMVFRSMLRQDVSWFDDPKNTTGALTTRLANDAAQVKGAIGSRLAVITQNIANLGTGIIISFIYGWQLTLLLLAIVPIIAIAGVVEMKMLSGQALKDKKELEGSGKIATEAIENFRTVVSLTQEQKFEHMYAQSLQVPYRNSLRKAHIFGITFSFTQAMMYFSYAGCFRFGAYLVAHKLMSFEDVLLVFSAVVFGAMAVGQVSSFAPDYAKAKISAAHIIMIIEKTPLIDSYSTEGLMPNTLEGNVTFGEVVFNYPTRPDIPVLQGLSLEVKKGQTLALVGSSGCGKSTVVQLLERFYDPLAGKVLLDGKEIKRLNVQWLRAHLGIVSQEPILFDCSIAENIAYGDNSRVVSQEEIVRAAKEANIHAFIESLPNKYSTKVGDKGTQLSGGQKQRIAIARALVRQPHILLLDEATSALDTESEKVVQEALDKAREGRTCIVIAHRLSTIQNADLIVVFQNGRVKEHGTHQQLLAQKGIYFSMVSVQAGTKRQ

Activity [1]: inhibitor [+] | Activity [2]: inhibitor [+] | Activity [3]: inhibitor [+]
Compound: COc1ccc2nc3cc(Cl)ccc3c(Nc3cc(CN4CCCC4)c(O)c(CN4CCCC4)c3)c2n1 [PYRONARIDINE]
